Measurements taken from the supplement of paper PMC8671470.

How the values were obtained:
Details in all cases: 72 h
MV4-11 [1] = test: cell viability (% survival relative to DMSO control, bortezomib = 0%); higher = less cytotoxic
Summary of the method: (§1)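 Fifteen myeloid leukaemia cell lines were exposed to compounds at 1, 10, 100, 1000 or 10000 nM in 384-well plates for 72 h at 37 °C and 5% CO2. Viability was read by CellTiter-Glo luminescence and normalised, with vehicle as 100% and a 10 µM positive control as 0%. Values are percent survival averaged over duplicates.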

K-562 [2] = test: as above
Summary of the method: as §1

Mono-Mac-6 [3] = test: as above
Summary of the method: as §1

SHI-1 = test: as above
Summary of the method: as §1

THP-1 = test: as above
Summary of the method: as §1

BV-173 = test: as above
Summary of the method: as §1

NOMO-1 [4] = test: as above
Summary of the method: as §1

HEL = test: as above
Summary of the method: as §1

MOLM-13 = test: as above
Summary of the method: as §1

ML-2 = test: as above
Summary of the method: as §1

HL-60 [5] = test: as above
Summary of the method: as §1

KU-812 [6] = test: as above
Summary of the method: as §1

LAMA-84 = test: as above
Summary of the method: as §1

KG-1 = test: as above
Summary of the method: as §1

KCL-22 = test: as above
Summary of the method: as §1

MV4-11 [7] = tested on: MV4-11
Summary of the method: (§2)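 The IC50 was read from log-logistic dose–response fits. Fifteen myeloid leukaemia lines were exposed for 72 h at 37 °C with 5% CO2 to five tenfold doses from 1 to 10,000 nM in duplicate. ATP luminescence, normalised to vehicle and to a 10 µM positive control, was fitted with four parameters.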

K-562 [8] = tested on: K-562
Summary of the method: as §2

Mono-Mac-6 [9] = tested on: Mono-Mac-6
Summary of the method: as §2

NOMO-1 [10] = tested on: NOMO-1
Summary of the method: as §2

KU-812 [11] = tested on: KU-812
Summary of the method: as §2

HL-60 [12] = test: cell viability (% survival relative to DMSO control); higher = less cytotoxic
Summary of the method: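 HL-60 cells in RPMI 1640 with 10% FBS were rescreened against the full library on 384-well plates at five tenfold concentrations, 1–10,000 nM, in duplicate. Each screen was run with DMSO or 100 nM of one of three metabolic inhibitors, for 72 h at 37 °C, 5% CO2. Viability was read by CellTiter-Glo and normalised to DMSO and 10 μM proteasome-inhibitor wells. Where given, area under the curve came from four-parameter log-logistic fits (drc, PharmacoGx).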

Nc1ccccc1C(=O)C[C@H](N)C(=O)O [L-Kynurenine]
cell viability [%]
Details	1 nM	10 nM	100 nM	1000 nM	10000 nM
BV-173	108	90.1	101	107	102
HEL	117	80.1	102	104	92.7
HL-60 [5]	122	100	111	105	109
K-562 [2]	104	125	93.3	101	110
KCL-22	104	–	96.6	103	97.3
KG-1	103	89.4	92.8	102	96.7
KU-812 [6]	98.8	90.5	99.5	106	99.2
LAMA-84	105	105	100	107	107
ML-2	107	103	103	100	98.7
MOLM-13	86.5	93.2	100	97.7	66.1
MV4-11 [1]	108	103	93.1	101	89.4
Mono-Mac-6 [3]	101	91.7	102	93.8	95.9
NOMO-1 [4]	102	96.3	99	117	101
SHI-1	120	102	90.6	104	98.4
THP-1	97	93.1	101	102	102

Details	IC50 (cell viability) [µM]
K-562 [8]	> 10
KU-812 [11]	> 10
MV4-11 [7]	> 10
Mono-Mac-6 [9]	> 10
NOMO-1 [10]	> 10

cell viability [%], HL-60 [12]
Details	0.001 µM	0.01 µM	0.1 µM	1 µM	10 µM
co-treatment: AZD3965 100 nM	93.4	77.9	104	99.66	104
co-treatment: DMSO vehicle	92.2	96.4	100.5	99	106.8
co-treatment: GSK2194069 100 nM	96.6	94.9	101	98.86	100
co-treatment: pictilisib 100 nM	88.1	95.5	103	94.5	105

O[C@H]1[C@H]2[C@H](O)CCCN2C[C@H]1O [Swainsonine]
cell viability [%]
Details	1 nM	10 nM	100 nM	1000 nM	10000 nM
BV-173	98.1	104	98.3	90.8	86.1
HEL	99.2	83.9	108	97.3	92.5
HL-60 [5]	107	88	104	95.8	112
K-562 [2]	109	107	102	101	107
KCL-22	88.9	92.3	102	98.1	89.9
KG-1	108	107	92.2	87.9	93.1
KU-812 [6]	104	100	100	99.8	109
LAMA-84	112	94	103	99.7	98.6
ML-2	97.9	97.7	108	86.4	79.5
MOLM-13	97.8	94.2	102	87.7	85.6
MV4-11 [1]	102	113	87.2	69.8	69.3
Mono-Mac-6 [3]	101	106	106	90	102
NOMO-1 [4]	109	103	99.4	94.7	94.1
SHI-1	93.8	110	109	108	102
THP-1	102	102	106	97.8	101

Details	IC50 (cell viability) [µM]
K-562 [8]	> 10
KU-812 [11]	> 10
MV4-11 [7]	> 10
Mono-Mac-6 [9]	> 10
NOMO-1 [10]	> 10

cell viability [%], HL-60 [12]
Details	0.001 µM	0.01 µM	0.1 µM	1 µM	10 µM
co-treatment: AZD3965 100 nM	97.6	103.58	97.5	98.4	102
co-treatment: DMSO vehicle	99.37	104	102	103	108
co-treatment: GSK2194069 100 nM	98.4	110	97.2	90.3	106
co-treatment: pictilisib 100 nM	101	108	91.9	120	106

O=C(O)c1cc(Cl)cc(Cl)c1O [3,5-Dichlorosalicylic Acid]
cell viability [%]
Details	1 nM	10 nM	100 nM	1000 nM	10000 nM
BV-173	107	86.1	119	106	106
HEL	102	111	98.6	111	104
HL-60 [5]	106	136	84.5	117	93.5
K-562 [2]	107	125	104	111	90.9
KCL-22	105	140	87	94.7	85.9
KG-1	107	107	85.6	117	96.8
KU-812 [6]	90.5	93.7	95.8	109	87.3
LAMA-84	105	87.4	97.5	103	92
ML-2	97.4	99.8	95.6	107	93.1
MOLM-13	92	112	83.9	110	91.7
MV4-11 [1]	96	106	91.3	104	88.3
Mono-Mac-6 [3]	106	102	93.7	107	89.7
NOMO-1 [4]	93.9	94.9	88.1	105	98.7
SHI-1	110	105	98.4	111	90
THP-1	95.3	93.3	87.7	96.7	98.8

Details	IC50 (cell viability) [µM]
K-562 [8]	> 10
KU-812 [11]	> 10
MV4-11 [7]	> 10
Mono-Mac-6 [9]	> 10
NOMO-1 [10]	> 10

cell viability [%], HL-60 [12]
Details	0.001 µM	0.01 µM	0.1 µM	1 µM	10 µM
co-treatment: AZD3965 100 nM	107	98.5	99.4	101	101
co-treatment: DMSO vehicle	104	105	101	106	101
co-treatment: GSK2194069 100 nM	97.6	97	95.56	97.5	102
co-treatment: pictilisib 100 nM	80.1	93.1	100	107	103
